# How the values were obtained:
# Test in all cases: relative viability (nuclei count vs DMSO), 5 days (fraction); higher = more cells survive
# [1] = compound: Cc1cc(Nc2cc(N3CCN(C)CC3)nc(Sc3ccc(NC(=O)C4CC4)cc3)n2)n[nH]1 [Tozasertib] + CCNC(=O)c1noc(-c2cc(C(C)C)c(O)cc2O)c1-c1ccc(CN2CCOCC2)cc1 [Luminespib] (partner 0.01 µM)
# Method in brief: (§1)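 A single step with final 0.05% Triton X-100, 1% formaldehyde and 1 ug/ml Hoechst fixed the cells and stained nuclei 5 days after treatment. Lung cancer cell lines in 1536-well plates had been treated by pin tool the day after seeding with one drug alone or a fixed anchor-drug dose plus five library-drug doses (not always all listed) in √10 steps, and nuclei were counted on 4× images. Relative viability is the ratio of nuclei in treated wells to nuclei in vehicle wells, taken as the median of duplicate plates.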
# [2] = compound: Cc1cc(Nc2cc(N3CCN(C)CC3)nc(Sc3ccc(NC(=O)C4CC4)cc3)n2)n[nH]1 [Tozasertib] + Cc1nc(NC(=O)N2CCC[C@H]2C(N)=O)sc1-c1ccnc(C(C)(C)C(F)(F)F)c1 [Alpelisib] (partner 2 µM)
# Method in brief: as §1
# [3] = compound: Cc1cc(Nc2cc(N3CCN(C)CC3)nc(Sc3ccc(NC(=O)C4CC4)cc3)n2)n[nH]1 [Tozasertib] + NC(=O)Nc1cc(-c2cccc(F)c2)sc1C(=O)N[C@H]1CCCNC1 [AZD7762] (partner 0.2 µM)
# Method in brief: as §1
# [4] = compound: Cc1cc(Nc2cc(N3CCN(C)CC3)nc(Sc3ccc(NC(=O)C4CC4)cc3)n2)n[nH]1 [Tozasertib] + Nc1nc2[nH]cc(CCc3ccc(C(=O)N[C@@H](CCC(=O)O)C(=O)O)cc3)c2c(=O)[nH]1 [Pemetrexed] (partner 0.2 µM)
# Method in brief: as §1
# [5] = compound: Cc1cc(Nc2cc(N3CCN(C)CC3)nc(Sc3ccc(NC(=O)C4CC4)cc3)n2)n[nH]1 [Tozasertib] + Nc1ncn([C@H]2C[C@H](O)[C@@H](CO)O2)c(=O)n1 [Decitabine] (partner 2 µM)
# Method in brief: as §1
Cell Line,relative viability ([1]; first compound 0.004 µM),relative viability ([1]; first compound 0.01265 µM),relative viability ([1]; first compound 0.04 µM),relative viability ([1]; first compound 0.1265 µM),relative viability ([2]; first compound 0.004 µM),relative viability ([2]; first compound 0.01265 µM),relative viability ([2]; first compound 0.04 µM),relative viability ([2]; first compound 0.1265 µM),relative viability ([3]; first compound 0.004 µM),relative viability ([3]; first compound 0.01265 µM),relative viability ([3]; first compound 0.04 µM),relative viability ([3]; first compound 0.1265 µM),relative viability ([4]; first compound 0.004 µM),relative viability ([4]; first compound 0.01265 µM),relative viability ([4]; first compound 0.04 µM),relative viability ([4]; first compound 0.1265 µM),relative viability ([5]; first compound 0.004 µM),relative viability ([5]; first compound 0.01265 µM),relative viability ([5]; first compound 0.1265 µM),relative viability ([5]; first compound 0.04 µM)
NCI-H1993,0.755,0.631,0.796,0.618,0.63,0.795,0.727,0.519,0.708,0.761,0.837,0.542,0.587,0.605,0.634,0.476,0.549,0.542,0.574,
NCI-H2085,0.473,0.428,0.442,0.457,0.999,0.963,0.873,0.804,0.928,0.906,0.971,0.929,0.935,0.815,1.03,0.802,0.578,0.508,0.485,0.538
NCI-H2087,0.175,0.185,0.177,0.172,1.08,1.01,1.21,0.913,1.13,1.24,1.33,1.01,0.72,0.698,0.671,0.688,0.244,0.257,0.143,0.306
NCI-H2126,1,0.935,0.891,0.865,0.819,0.748,0.806,0.769,1.01,,1.05,1.02,0.688,0.736,,0.729,0.551,0.58,0.606,0.612
NCI-H2170,0.708,0.767,0.744,0.689,0.721,0.769,0.838,0.679,0.81,0.893,0.848,0.788,0.289,0.241,0.293,0.271,0.487,0.446,0.425,0.474
NCI-H2347,0.326,,0.39,0.346,0.996,1.09,0.871,0.963,0.686,0.686,0.835,0.75,0.44,0.461,0.45,0.432,0.567,0.365,0.74,0.627
NCI-H2405,0.673,0.67,0.58,0.712,0.723,0.812,0.778,0.807,0.753,,0.612,0.547,1.01,1.12,0.973,0.894,0.721,0.699,0.683,0.715
NCI-H3122,0.0858,0.0879,0.1,0.101,0.808,0.809,0.847,0.749,1,0.952,1.06,1.07,0.193,0.214,0.191,0.218,0.444,0.356,0.494,0.48

# From the supplement of paper PMC10307832
